The record followed here is ChEMBL document CHEMBL5465560, “Selectivity Literature for EUbOPEN Chemogenomic Library” (2024).

For assay [1], the target named is Casein kinase II subunit alpha (Homo sapiens, UniProt P68400). Briefly: Selectivity interaction (Kinase panel (Z-LYTE Assay)) EUB0001632a CSNK2A1. The settings on record: at 10 µM.
For assay [2], the target named is Vascular endothelial growth factor receptor 1 (Homo sapiens) (UniProt P17948). Briefly: Selectivity interaction (Kinase panel (Z-LYTE Assay)) EUB0001632a FLT1. The conditions noted are these: at 10 µM.
Vascular endothelial growth factor receptor 1 (Homo sapiens), sequence (P17948 whole entry): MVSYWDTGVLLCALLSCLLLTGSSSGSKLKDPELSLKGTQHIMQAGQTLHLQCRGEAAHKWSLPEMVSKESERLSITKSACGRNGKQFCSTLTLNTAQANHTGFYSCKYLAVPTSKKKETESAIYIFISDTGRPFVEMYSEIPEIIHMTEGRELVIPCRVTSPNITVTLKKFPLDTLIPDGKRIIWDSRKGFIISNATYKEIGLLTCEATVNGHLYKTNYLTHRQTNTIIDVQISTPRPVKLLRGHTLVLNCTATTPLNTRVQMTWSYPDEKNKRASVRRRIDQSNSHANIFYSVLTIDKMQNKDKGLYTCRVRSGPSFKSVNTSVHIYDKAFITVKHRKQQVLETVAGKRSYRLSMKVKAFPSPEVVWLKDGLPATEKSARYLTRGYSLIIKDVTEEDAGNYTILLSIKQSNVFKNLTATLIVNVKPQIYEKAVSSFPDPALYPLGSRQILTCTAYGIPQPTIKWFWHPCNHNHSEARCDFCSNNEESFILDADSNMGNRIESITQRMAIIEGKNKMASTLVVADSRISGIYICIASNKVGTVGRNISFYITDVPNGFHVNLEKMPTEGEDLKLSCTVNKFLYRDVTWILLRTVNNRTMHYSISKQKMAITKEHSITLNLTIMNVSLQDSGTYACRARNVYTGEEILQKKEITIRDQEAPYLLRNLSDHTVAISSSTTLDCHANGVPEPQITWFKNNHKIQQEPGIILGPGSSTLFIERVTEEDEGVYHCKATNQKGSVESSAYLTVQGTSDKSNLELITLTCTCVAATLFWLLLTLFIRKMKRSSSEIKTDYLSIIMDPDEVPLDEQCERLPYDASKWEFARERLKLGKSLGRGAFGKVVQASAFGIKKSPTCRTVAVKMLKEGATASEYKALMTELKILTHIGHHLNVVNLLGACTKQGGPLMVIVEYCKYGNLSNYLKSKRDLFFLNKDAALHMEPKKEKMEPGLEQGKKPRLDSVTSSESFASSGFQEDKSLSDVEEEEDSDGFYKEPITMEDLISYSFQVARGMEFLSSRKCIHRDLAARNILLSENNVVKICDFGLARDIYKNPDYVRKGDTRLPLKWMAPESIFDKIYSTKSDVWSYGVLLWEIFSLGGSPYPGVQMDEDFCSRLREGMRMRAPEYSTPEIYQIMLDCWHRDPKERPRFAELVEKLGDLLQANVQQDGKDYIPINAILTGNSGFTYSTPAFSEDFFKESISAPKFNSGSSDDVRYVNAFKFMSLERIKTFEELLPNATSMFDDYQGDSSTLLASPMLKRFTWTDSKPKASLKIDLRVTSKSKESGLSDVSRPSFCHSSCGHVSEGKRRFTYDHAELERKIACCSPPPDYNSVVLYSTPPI
The target in assay [3] is Ribosomal protein S6 kinase alpha-4 (Homo sapiens) (UniProt O75676). Briefly: Selectivity interaction (Ambit KINOMEscan and KiNATiv profiling in Jurkat cells) EUB0000090b RPS6KA4. The class given is cell-based. The conditions noted are these: at 1 µM.
Assay [4] concerns the target Tyrosine-protein kinase JAK2 (Homo sapiens, UniProt O60674). Briefly: Selectivity interaction (KinomeScan (DiscoverX)) EUB0000607a JAK2. The settings on record: at 10 µM.
The target of assay [5] is Homeodomain-interacting protein kinase 3 (Homo sapiens, UniProt Q9H422). The conditions noted are these: at 10 µM.
In assay [6] the target is Serine/threonine-protein kinase PLK2 (Homo sapiens, UniProt Q9NYY3). Briefly: Selectivity interaction (KinomeScan (DiscoverX)) EUB0000655a PLK2. The settings on record: at 10 µM.
Serine/threonine-protein kinase PLK2, sequence (Q9NYY3 whole entry, looked up): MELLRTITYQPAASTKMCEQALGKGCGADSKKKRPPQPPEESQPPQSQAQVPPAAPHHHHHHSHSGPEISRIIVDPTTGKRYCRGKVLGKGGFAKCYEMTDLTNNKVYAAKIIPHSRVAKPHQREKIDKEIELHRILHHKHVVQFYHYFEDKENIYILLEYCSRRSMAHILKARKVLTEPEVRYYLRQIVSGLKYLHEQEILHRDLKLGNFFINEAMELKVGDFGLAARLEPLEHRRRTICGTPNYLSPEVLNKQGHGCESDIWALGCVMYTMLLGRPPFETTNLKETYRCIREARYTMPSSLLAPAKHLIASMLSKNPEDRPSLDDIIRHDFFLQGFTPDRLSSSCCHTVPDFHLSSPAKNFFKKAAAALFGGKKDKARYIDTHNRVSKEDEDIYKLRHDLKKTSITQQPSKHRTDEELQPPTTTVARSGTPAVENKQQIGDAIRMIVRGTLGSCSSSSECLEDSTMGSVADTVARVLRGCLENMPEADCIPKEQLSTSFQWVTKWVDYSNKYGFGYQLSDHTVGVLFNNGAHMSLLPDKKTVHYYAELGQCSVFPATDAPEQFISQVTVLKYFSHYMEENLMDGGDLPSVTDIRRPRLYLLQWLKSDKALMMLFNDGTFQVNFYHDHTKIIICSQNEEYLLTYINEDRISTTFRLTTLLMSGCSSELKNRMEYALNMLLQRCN
Assay [7] has as its target Aurora kinase B (Homo sapiens, UniProt Q96GD4). Briefly: Selectivity interaction (Kinase panel (Invitrogen, enzymatic assay)) EUB0000162b AURKB.
Assay [8] has as its target T1, Serine/threonine-protein kinase 3 (Homo sapiens) (UniProt Q13188).
T1 sequence (whole entry): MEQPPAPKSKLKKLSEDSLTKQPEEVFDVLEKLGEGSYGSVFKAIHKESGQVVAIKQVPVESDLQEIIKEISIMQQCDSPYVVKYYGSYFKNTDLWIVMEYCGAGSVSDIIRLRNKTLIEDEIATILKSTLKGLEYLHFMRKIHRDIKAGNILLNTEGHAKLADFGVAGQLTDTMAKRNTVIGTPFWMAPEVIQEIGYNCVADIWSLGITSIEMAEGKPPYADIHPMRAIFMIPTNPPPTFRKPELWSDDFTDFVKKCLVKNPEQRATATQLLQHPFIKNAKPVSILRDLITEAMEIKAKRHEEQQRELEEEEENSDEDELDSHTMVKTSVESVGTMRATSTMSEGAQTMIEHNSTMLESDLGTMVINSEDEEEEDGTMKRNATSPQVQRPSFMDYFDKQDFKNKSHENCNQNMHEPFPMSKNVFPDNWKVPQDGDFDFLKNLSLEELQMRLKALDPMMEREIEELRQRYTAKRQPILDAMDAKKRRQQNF
Briefly: Selectivity interaction (ActivX KiNativ screen (kinase selectivity in THP-1 cell lysates)) EUB0000639a STK3. The settings on record: lysate. The assay is classed as subcellular.

The target in assay [9] is Macrophage colony-stimulating factor 1 receptor (Homo sapiens) (UniProt P07333). Briefly: Selectivity interaction (KinomeScan (DiscoverX)) EUB0001049a CSF1R. The settings on record: at 1 µM.
In assay [10] the target is T2, Mitogen-activated protein kinase kinase kinase 3 (Homo sapiens) (UniProt Q99759).
T2 sequence (whole entry): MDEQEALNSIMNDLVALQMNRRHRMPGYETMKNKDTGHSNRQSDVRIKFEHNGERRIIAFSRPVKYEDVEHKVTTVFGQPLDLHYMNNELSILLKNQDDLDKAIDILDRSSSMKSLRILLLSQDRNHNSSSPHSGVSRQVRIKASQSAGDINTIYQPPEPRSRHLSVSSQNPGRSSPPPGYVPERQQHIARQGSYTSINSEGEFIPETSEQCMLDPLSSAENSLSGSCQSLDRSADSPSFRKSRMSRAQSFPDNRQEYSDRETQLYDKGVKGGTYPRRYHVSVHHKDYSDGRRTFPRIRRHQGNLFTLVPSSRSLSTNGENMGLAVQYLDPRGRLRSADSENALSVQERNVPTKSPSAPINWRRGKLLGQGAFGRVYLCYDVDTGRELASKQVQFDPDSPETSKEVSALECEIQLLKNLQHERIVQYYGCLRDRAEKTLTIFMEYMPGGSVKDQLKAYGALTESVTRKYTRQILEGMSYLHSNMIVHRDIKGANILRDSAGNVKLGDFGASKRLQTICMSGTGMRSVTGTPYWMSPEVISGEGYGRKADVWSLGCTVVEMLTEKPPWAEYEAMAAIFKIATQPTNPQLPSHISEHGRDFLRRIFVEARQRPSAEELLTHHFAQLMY
Briefly: Selectivity interaction (KinomeScan (DiscoverX)) EUB0000695a MAP3K3. The settings on record: at 100 nM.

Assay [11] concerns the target RAC-gamma serine/threonine-protein kinase (Homo sapiens, UniProt Q9Y243). Briefly: Selectivity interaction (KinomeScan (DiscoverX)) EUB0000045b AKT3.
For assay [12], the target named is Tyrosine-protein kinase JAK1 (Homo sapiens, UniProt P23458). Briefly: Selectivity interaction (KinomeScan (DiscoverX)) EUB0000045b JAK1.
Tyrosine-protein kinase JAK1, sequence (P23458 whole entry): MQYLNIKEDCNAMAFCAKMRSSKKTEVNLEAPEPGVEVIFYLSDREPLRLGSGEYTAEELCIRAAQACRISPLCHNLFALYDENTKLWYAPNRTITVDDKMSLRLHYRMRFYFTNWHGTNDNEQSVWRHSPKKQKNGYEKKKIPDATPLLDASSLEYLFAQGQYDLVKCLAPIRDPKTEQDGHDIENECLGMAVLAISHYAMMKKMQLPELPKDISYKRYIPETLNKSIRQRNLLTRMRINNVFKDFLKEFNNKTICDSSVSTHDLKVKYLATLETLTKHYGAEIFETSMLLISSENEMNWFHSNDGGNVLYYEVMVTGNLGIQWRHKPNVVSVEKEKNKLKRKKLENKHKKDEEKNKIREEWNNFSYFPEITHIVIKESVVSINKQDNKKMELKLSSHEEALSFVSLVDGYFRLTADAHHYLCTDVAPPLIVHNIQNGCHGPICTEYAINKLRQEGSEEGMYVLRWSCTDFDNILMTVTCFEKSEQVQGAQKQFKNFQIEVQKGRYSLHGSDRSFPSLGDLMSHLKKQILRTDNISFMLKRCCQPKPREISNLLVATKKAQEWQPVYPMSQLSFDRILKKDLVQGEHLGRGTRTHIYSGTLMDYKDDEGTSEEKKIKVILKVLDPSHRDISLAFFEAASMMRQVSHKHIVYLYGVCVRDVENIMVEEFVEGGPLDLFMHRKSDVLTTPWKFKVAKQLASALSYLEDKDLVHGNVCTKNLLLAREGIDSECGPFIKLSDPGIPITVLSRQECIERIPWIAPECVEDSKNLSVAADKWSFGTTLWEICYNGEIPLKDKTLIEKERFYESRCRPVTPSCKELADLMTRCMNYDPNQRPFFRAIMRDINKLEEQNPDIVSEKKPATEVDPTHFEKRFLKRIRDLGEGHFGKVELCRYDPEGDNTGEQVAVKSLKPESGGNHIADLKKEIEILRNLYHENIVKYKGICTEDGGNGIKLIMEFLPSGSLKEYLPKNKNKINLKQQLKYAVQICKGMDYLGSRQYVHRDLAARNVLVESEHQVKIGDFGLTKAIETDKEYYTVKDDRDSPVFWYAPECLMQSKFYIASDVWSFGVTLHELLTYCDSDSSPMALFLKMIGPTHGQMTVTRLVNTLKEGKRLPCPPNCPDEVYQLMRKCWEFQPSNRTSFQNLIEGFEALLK
Assay [13] has as its target Serine/threonine-protein kinase Nek6 (Homo sapiens) (UniProt Q9HC98). Briefly: Selectivity interaction (KinomeScan (DiscoverX)) EUB0000618a NEK6. The conditions noted are these: at 10 µM.
Assay [14] addresses Receptor-interacting serine/threonine-protein kinase 2 (Homo sapiens, UniProt O43353). Briefly: Selectivity interaction (Upstate Kinase Profiler service (Millipore)) EUB0000056c RIPK2. The conditions noted are these: at 1 µM.
The target in assay [15] is T3, Serine/threonine-protein kinase Nek3 (Homo sapiens) (UniProt P51956).
T3 sequence (whole entry): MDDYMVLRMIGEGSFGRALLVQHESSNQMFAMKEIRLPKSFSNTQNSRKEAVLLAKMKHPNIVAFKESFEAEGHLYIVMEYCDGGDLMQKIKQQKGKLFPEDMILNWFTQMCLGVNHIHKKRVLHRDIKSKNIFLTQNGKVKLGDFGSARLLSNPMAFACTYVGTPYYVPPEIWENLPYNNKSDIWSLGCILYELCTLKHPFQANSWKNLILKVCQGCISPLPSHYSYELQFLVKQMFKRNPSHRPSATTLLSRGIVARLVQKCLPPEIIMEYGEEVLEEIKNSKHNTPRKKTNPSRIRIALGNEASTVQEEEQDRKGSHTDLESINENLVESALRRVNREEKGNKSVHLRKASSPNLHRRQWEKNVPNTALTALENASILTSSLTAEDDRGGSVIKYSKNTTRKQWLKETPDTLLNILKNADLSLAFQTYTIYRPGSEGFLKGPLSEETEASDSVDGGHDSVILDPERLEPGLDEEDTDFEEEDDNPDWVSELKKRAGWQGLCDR
Briefly: Selectivity interaction (KinomeScan (DiscoverX)) EUB0000595a NEK3. The conditions noted are these: at 10 µM.

RAC-gamma serine/threonine-protein kinase, sequence (Q9Y243 whole entry): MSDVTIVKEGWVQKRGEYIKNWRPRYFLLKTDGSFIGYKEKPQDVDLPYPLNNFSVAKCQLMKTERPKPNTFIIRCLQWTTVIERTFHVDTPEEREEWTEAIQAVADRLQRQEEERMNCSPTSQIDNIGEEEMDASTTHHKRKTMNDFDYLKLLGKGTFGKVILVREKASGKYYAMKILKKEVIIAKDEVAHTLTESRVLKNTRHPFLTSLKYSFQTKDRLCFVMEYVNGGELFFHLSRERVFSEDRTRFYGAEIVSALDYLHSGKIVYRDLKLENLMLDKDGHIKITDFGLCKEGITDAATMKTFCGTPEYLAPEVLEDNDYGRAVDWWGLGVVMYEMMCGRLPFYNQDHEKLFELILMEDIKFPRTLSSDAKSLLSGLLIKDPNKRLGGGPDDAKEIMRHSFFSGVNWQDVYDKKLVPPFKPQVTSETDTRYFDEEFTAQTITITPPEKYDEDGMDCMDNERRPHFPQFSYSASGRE
Tyrosine-protein kinase JAK2, sequence (O60674 whole entry): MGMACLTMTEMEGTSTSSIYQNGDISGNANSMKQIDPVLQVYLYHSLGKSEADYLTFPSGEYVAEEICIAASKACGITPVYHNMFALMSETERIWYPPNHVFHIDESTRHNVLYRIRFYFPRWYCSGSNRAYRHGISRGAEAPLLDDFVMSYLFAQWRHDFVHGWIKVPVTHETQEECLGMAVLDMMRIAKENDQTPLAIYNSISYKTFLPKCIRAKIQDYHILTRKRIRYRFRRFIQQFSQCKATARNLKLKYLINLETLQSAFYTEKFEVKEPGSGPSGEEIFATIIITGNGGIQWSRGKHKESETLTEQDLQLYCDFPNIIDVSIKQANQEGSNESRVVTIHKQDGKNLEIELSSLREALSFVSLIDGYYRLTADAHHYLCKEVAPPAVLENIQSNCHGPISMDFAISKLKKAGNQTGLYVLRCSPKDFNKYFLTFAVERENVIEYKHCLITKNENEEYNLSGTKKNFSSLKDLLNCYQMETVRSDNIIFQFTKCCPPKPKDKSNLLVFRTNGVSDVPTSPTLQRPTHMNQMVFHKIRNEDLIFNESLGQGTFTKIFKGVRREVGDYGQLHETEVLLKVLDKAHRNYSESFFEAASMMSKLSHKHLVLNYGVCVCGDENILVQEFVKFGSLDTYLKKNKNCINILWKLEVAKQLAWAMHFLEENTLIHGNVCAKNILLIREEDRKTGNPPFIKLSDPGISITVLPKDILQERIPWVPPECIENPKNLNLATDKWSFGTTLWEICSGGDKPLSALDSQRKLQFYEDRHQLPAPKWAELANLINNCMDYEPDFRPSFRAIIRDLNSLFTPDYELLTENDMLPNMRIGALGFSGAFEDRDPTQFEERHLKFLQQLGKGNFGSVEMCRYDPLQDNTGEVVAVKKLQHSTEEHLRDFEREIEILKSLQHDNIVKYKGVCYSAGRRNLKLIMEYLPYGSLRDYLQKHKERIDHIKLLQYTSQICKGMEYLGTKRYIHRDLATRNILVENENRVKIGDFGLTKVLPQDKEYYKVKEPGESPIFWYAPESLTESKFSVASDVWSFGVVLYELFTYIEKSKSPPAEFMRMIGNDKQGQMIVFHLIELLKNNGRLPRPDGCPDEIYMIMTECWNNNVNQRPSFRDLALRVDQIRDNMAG
Serine/threonine-protein kinase Nek6 (Homo sapiens), sequence (Q9HC98 whole entry): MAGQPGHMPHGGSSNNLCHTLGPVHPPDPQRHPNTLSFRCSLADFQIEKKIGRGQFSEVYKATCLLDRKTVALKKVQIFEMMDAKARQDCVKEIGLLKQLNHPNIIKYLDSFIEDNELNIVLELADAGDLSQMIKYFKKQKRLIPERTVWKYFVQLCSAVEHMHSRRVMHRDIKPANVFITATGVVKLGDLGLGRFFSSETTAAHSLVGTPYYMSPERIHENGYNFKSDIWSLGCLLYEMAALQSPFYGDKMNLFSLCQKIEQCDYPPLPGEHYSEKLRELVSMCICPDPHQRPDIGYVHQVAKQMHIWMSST

Consider `Cn1cc(-n2cnc3c(NCc4nc5cc(Cl)c(Cl)cc5[nH]4)nc(N4CCOCC4)nc32)cn1`, for which the % of control in assay [1] is -3.76%; in [2], 1.04%.

With `CN(C)C/C=C/C(=O)Nc1ccc(C(=O)N2CCCC(Nc3ncc(Cl)c(-c4c[nH]c5ccccc45)n3)C2)cc1` (stereo unspecified), the % of control in assay [3] was found to be 100%. As for `CNC(=O)Nc1ccc(-c2nc(N3CC4CCC(C3)O4)c3cnn(C4CCC5(CC4)OCCO5)c3n2)cc1`, the % of control in [4] is 100%. On to `Cc1cc([C@@H](C)Nc2ccccc2C(=O)O)c2nc(N3CCOCC3)cc(=O)n2c1` [AZD-6482], for which, in [5], the % of control was 89%. For the compound `CN(C)CCOc1ccc(-c2nc(-c3ccncc3)c(-c3ccc4c(c3)CC/C4=N\O)[nH]2)cc1`, in assay [6], the % of control was 92%. In general, IC50 refers to the concentration that inhibits the measured activity by half. A higher IC50 goes with weaker potency. Regarding `CN(C)C(=O)Cn1cc(-c2ccc(-c3cncc4ccccc34)cc2)cn1`, in assay [7], it took 809 nM to reach half-maximal inhibition (IC50). Turning to `CC[C@@H]1[C@H](F)C(=O)N[C@@H]1COc1nccc2cc(C(N)=O)c(OC)cc12` [ZIMLOVISERTIB], the % of inhibition in [8] (at 0.01 µM) was -6.8%; in assay [8] (at 0.04 µM) it was -5.9%; in assay [8] (at 0.2 µM) it was -9.3%; in [8] (at 1 µM), 4%; in [8] (at 5 µM), 11.1%. In the case of `COc1cc(Nc2nc(C)cc(-c3cnn4nc(OC)ccc34)n2)cc(C(F)(F)F)c1`, the % of control in assay [9] stood at 100%. Take `Cc1cc(F)c(C(=O)Nc2cccc(-c3nncn3C(C)C)n2)cc1-n1cnc(C2CC2)c1`: in assay [10], the % of control was 93%. For `C=CC(=O)Nc1cc(-n2c(=O)ccc3cnc4ccc(-c5ccc(NS(C)(=O)=O)cc5)cc4c32)ccc1C`, the % of control is 75% in assay [11] (at 1 µM), 100% in assay [11] (at 10 µM), 87% in assay [12] (at 1 µM) and 76% in assay [12] (at 10 µM). As to `O[C@H]1CC[C@H](Nc2ncc3nc(Nc4c(F)cc(F)cc4F)n([C@H]4CCOC4)c3n2)CC1`, the % of control in assay [13] worked out at 100%. For `Cc1ccc(-c2ccc3c(ccc4sc5c(c43)NC[C@@H](C)NC5=O)n2)cn1`, in assay [14], the % of inhibition came to 74%. As to `COCC(=O)NC/C=C/c1ccc2ncnc(Nc3ccc(Oc4ccc(C)nc4)c(C)c3)c2c1` [CP-724714], in assay [15], the % of control amounted to 95%.
